The record followed here is US12377044B2, “Method and device for transdermal delivery of parathyroid hormone using a microprojection array” (Panther Life Sciences Corporation, priority 2010, dated 2025).

The nature of the data set: clinical. The note with it: female, human, in vivo, sc, 20 ug.

Procedure: The microprojection array described herein was used to administer transdermally hPTH (1-34) to healthy human subjects. As a comparator, hPTH (1-34) was also administered subcutaneously to a healthy group of human subjects.
In this study, a microprojection array was prepared as detailed in Example 9 and inserted into an applicator-array assembly to form a transdermal delivery system, as described in Example 10. […] The delivery system was designed to deliver a systemic dose of hPTH (1-34) across the stratum corneum barrier layer of the skin upon activation of the applicator to deploy an array of microstructures causing the array of microstructures to penetrate the stratum corneum. In this study, two dose levels were administered via the transdermal delivery system, 32 μg hPTH (1-34) and 64 μg hPTH (1-34) (32 μg hPTH (1-34)×2). Subjects received these doses by applying the transdermal microneedle delivery system MicroCor® device containing the indicated amount of hPTH in the distal tips of the microneedles in the array to an abdominal site, and leaving the device in place for five (5) minutes. The comparator treatment (the commercial hPTH product known as Forteo®) was subcutaneously administered via injection into the abdominal wall at a dose of 20 μg. Blood samples were drawn at designated times and analyzed for hPTH concentration. […]

With `CC[C@H](C)[C@H](NC(=O)[C@H](CCC(=O)O)NC(=O)[C@H](CO)NC(=O)[C@@H](NC(=O)[C@@H](N)CO)C(C)C)C(=O)N[C@@H](CCC(N)=O)C(=O)N[C@@H](CC(C)C)C(=O)N[C@@H](CCSC)C(=O)N[C@@H](Cc1cnc[nH]1)C(=O)N[C@@H](CC(N)=O)C(=O)N[C@@H](CC(C)C)C(=O)NCC(=O)N[C@@H](CCCCN)C(=O)N[C@@H](Cc1cnc[nH]1)C(=O)N[C@@H](CC(C)C)C(=O)N[C@@H](CC(N)=O)C(=O)N[C@@H](CO)C(=O)N[C@@H](CCSC)C(=O)N[C@@H](CCC(=O)O)C(=O)N[C@@H](CCCN=C(N)N)C(=O)N[C@H](C(=O)N[C@@H](CCC(=O)O)C(=O)N[C@@H](Cc1c[nH]c2ccccc12)C(=O)N[C@@H](CC(C)C)C(=O)N[C@@H](CCCN=C(N)N)C(=O)N[C@@H](CCCCN)C(=O)N[C@@H](CCCCN)C(=O)N[C@@H](CC(C)C)C(=O)N[C@@H](CCC(N)=O)C(=O)N[C@@H](CC(=O)O)C(=O)N[C@H](C(=O)N[C@@H](Cc1cnc[nH]1)C(=O)N[C@@H](CC(N)=O)C(=O)N[C@@H](Cc1ccccc1)C(=O)O)C(C)C)C(C)C` [hPTH (1-34), human Parathyroid hormone (1-34)], the half-life (commonly how long it takes for the measured level to halve) came out at 52 min.
